Results as given in US20250304526A1, “HIGH AND MULTIPLE REDOX POTENTIAL, STABLE, AND SOLUBLE BIS-DIARYLAMINE DERIVATIVES AND USES THEREOF” (University of Kentucky Research Foundation, priority 2024, published 2025).
Converted amounts (≈) assume the structure as drawn. Where two headings read alike, the source gives them in different places.

What was measured:
Assay type in all cases: physicochemical
[1] = Cyclic voltammetry (redox potentials, diffusion coefficients); settings: for Redox peak of radical cation formation (first oxidation potential): 1 mM, 0.1 M TBAPF6 in CH3CN, glassy carbon; for Kc (comproportionation constant): calculated from ΔE at 298 K
Experimental: CV measurements were carried out in a nitrogen-filled glovebox at ambient glovebox temperature using a VSP-300 potentiostat (BioLogic). Unless otherwise indicated, the CVs were recorded in 0.2 M TBAPF6/CH3CN as electrolyte with 3 mm diameter glassy carbon (CH Instruments, Inc.) as the working electrode. A non-aqueous Ag/Ag^+ (silver wire immersed in CH3CN containing 0.1 M TBABF4 and 0.01 M AgBF4) electrode was used as the reference electrode, and a Pt wire (CH Instruments, Inc.) as the counter electrode. Before each measurement, glassy carbon electrodes were mechanically polished with an aqueous slurry of graded alumina (0.05 μm), then ultra-sonicated in water then acetone for 1 min each. Voltammograms were recorded at a scan rate of 100 mV·s^−1. Ferrocene was used as an internal reference and the oxidation potentials were calibrated with respect to ferrocene/ferrocenium (Cp2Fe^0/+) redox couple. The diffusion coefficients were determined using Randles-Sevick equation: […]
with R being the perfect gas constant (8.314 J·mol^−1·K^−1), F the Faraday's constant (96485 C·mol^−1), T the absolute temperature (˜298 K), ip is the peak current intensity (in A), n the number of transferred electrons, A the area of the electrode (cm^2), D the diffusion coefficient (cm^2·s^−1), v the scan rate (V·s^−1) and c the concentration (mol·cm^−3). Data obtained from voltammograms at scan rates of 25, 50, 75, 100, 200, 300 and 400 mV·s^−1 were used for the calculation of diffusion coefficients.
Electrochemical characterization of 1-4 was achieved by cyclic voltammetry (CV) in 0.1 M TBAPF6 in CH3CN. Glassy carbon was used as the working electrode and 1 mM of active materials were used. All derivatives featured two distinct one-electron oxidation waves upon voltage sweep. The first and the second waves correspond to the sequential neutral to radical-cation and radical-cation to dication transformations, respectively. These features are in line with the presence of two redox centers in these molecules. The redox peaks associated with the radical cation formation for molecules 1 and 2 are centered at 0 and 0.17 V vs Fc^+/Fc, respectively (FIG. 4). These values are in line with the data reported in literature for the same molecules.^8 Note that in previous literature the electrochemistry is reported in 0.1 M TBAClO4 in dichloromethane and reported versus a Ag/AgCl reference electrode. The Fc^+/Fc couple has a redox potential at 0.403 V vs SCE and 0.44 V vs Ag/AgCl reference electrode. On the other hand, molecules 3 and 4 feature the radical cation transformation redox peaks at 0.41 and 0.53 V vs Fc^+/Fc, respectively (FIG. 4).
In fact, these molecules belong to a class of compounds known as mixed-valence (MV) compounds. Mixed valency is a term that refers to a chemical species, whether organic or inorganic, with two or more redox centers that have different oxidation stated. This concept was first introduced in 1915 by Hofmann and Hoeschele. MV species are usually intensely colored due to the unique electronic transitions associated with intervalence electron transfer. CV is a useful technique in studying MV species since it provides insights on how stable one ionic species will be with respect to disproportionation, using the comproportionation constant (Kc). Kc is used to measure the ease of isolating the radical-cation rather than obtaining a mixture of neutral, radical-cationic, and dicationic species. Kc can be calculated from the ΔE which is the value of the redox potential difference between the first and the second oxidation events. Kc is a quantity used to evaluate the electronic communication between two redox centers in mixed-valence species. Large comproportionation constant, i.e. a substantial value of ΔE, is a crucial requirement for the isolation of mixed-valence species separately of other oxidation states of the species. Kc is defined as: […]

[2] = Solubility determination in pure acetonitrile by mass measurement
Experimental: The solubility of the compounds in pure acetonitrile was determined by the mass measurement method described previously. Saturated solutions of each compound were prepared and filtered to remove any undissolved material. Afterwards, 3 mL of each solution were taken and added to previously weighed vials (the measurement was repeated three times for each solution, i.e. 3 vials for each solution). The vials were then stored open in a nitrogen-filled glove box to allow the slow evaporation of the solvent. After 10 days, acetonitrile was evaporated from all vials, leaving only the previously dissolved solid. The vials were then re-weighed and the mass of the solid was determined by subtracting the mass of the respective empty vial. The concentration of the compound was calculated from the mass of the dissolved solid and the volume of the sample placed into the vial.
The solubilities of 1-4 were examined in pure CH3CN using the mass measurement method.

[3] = UV-NIR spectroscopy of radical cations (IVCT band, Hush analysis); settings: for ν1/2, Hush (Hush-theory predicted band width): predicted from νmax at 298 K; for ν1/2 (measured IVCT band width) / νmax (IVCT band): radical cation, 0.5 mM in pure CH3CN
Experimental: In an argon-filled glove box, 0.5 mM solutions of neutral and radical cation were prepared in acetonitrile and pipetted into 1 mm path length optical glass cuvettes. The choice of this path length of cuvette is dictated by the aim to prevent the UV-vis detector saturation of the intensely colored cationic species. All samples destined to UV-vis stability monitoring contained 0.1 M TBAPF6 whereas UV-NIR samples were in pure CH3CN. Solutions were added to the cuvettes inside an argon filled glovebox, sealed with a Teflon screw cap and removed from the glovebox for spectral analysis. UV-vis spectra were collected in an Agilent 8453 diode-array spectrometer. Spectra were collected at 0, 1, 3, 4, 5, 6 and 24 h after dissolution.
The synthesized cations were also characterized using UV-NIR spectroscopy (FIG. 3). From FIG. 3 it can be clearly seen that the spectra of the charged forms change dramatically as compared to the neutral forms. […] These values match perfectly to those reported by Lambert and Noll for the same molecules using spectroelectrochemistry in 0.1 M TBAPF6 in dichloromethane.^21
Class II or III assignment is based on electronic spectroscopy; the broadness and line shape of the IVCT transition is analyzed in this case. Analysis of the line broadness and line shape of the IVCT band is also used to determine whether a mixed-valence species belongs to Class II or III. Hush theory provides a relationship that simplifies at 298 K to:
where vmax is the maximum absorption of the IVCT band given in […].

[4] = Cyclic voltammetry (redox potentials, diffusion coefficients); settings: 1 mM in 0.2M TBAPF6/CH3CN; for D (diffusion coefficient): Randles-Sevcik equation
[5] = organic solvent or mixture, thermodynamic from solid, read-out: Solubility

Row | Redox peak of radical cation formation (first oxidation potential) [1] | Kc (comproportionation constant) [1] | solubility [2] | solubility [2, 5] | ν1/2, Hush (Hush-theory predicted band width) [3] | ν1/2 (measured IVCT band width) [3] | νmax (IVCT band) [3] | νmax (IVCT band) ([3]; listed as 1^⋅) | E^o′1 (first redox potential) [4] | E^o′2 (second redox potential) [4] | ΔE (E^o′2 − E^o′1) [4] | D (diffusion coefficient) [4] | Compound
1 | 0 V vs Fc^+/Fc | 3 × 10^6 | 8.76 mM (≈ 4670 µg/mL) | 9 mM (≈ 4790 µg/mL) | 4756 cm⁻¹ | 3846 cm⁻¹ | 9790 cm⁻¹ | ~10000 cm⁻¹ | 0.00 V vs Cp2Fe^0/+ | 0.38 V vs Cp2Fe^0/+ | 0.38 | 4.49 10^−6 cm^2 · s^−1 | COc1ccc(N(c2ccc(OC)cc2)c2ccc(N(c3ccc(OC)cc3)c3ccc(OC)cc3)cc2)cc1 [1^+⋅]
2 | 0.17 V vs Fc^+/Fc | 5 × 10^2 |  | 3.5 mM (≈ 2130 µg/mL) | 4740 cm⁻¹ | 3524 cm⁻¹ | 9728 cm⁻¹ |  | 0.17 V vs Cp2Fe^0/+ | 0.33 V vs Cp2Fe^0/+ | 0.16 | 1.81 10^−6 cm^2 · s^−1 | COc1ccc(N(c2ccc(OC)cc2)c2ccc(-c3ccc(N(c4ccc(OC)cc4)c4ccc(OC)cc4)cc3)cc2)cc1 [2^+⋅]
3 | 0.41 V vs Fc^+/Fc | 3 × 10^8 | 13.34 mM (≈ 9880 µg/mL) | 13 mM (≈ 9630 µg/mL) | 5448 cm⁻¹ | 4018 cm⁻¹ | 12849 cm⁻¹ |  | 0.41 V vs Cp2Fe^0/+ | 0.91 V vs Cp2Fe^0/+ | 0.50 | 7.67 10^−6 cm^2 · s^−1 | Cc1ccc(C(F)(F)F)cc1N(c1ccc(N(c2cc(C(F)(F)F)ccc2C)c2cc(C(F)(F)F)ccc2C)cc1)c1cc(C(F)(F)F)ccc1C [3^+⋅]
4 | 0.53 V vs Fc^+/Fc | 5 × 10^2 |  | 13 mM (≈ 10600 µg/mL) | 4362 cm⁻¹ | 2519 cm⁻¹ | 8238 cm⁻¹ |  | 0.53 V vs Cp2Fe^0/+ | 0.69 V vs Cp2Fe^0/+ | 0.16 | 1.54 10^−6 cm^2 · s^−1 | Cc1ccc(C(F)(F)F)cc1N(c1ccc(-c2ccc(N(c3cc(C(F)(F)F)ccc3C)c3cc(C(F)(F)F)ccc3C)cc2)cc1)c1cc(C(F)(F)F)ccc1C [4^+⋅]
